# Assay results from PubChem BioAssay (NCI).
#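 Values below derive from 48-hour exposures of cells grown in 96-well plates, with endpoints linearly interpolated between the two concentrations bracketing the appropriate inhibition level. At the TGI there is no net growth.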
# Assays:
# Assay in all cases: NCI tumour cell line growth inhibition, 48 h
# UACC-62 melanoma = tested on: UACC-62 melanoma
# DU-145 prostate = tested on: DU-145 prostate
# SN12C renal = tested on: SN12C renal
# NCI-H460 lung = tested on: NCI-H460 lung
# RPMI-8226 leukemia = tested on: RPMI-8226 leukemia
# ACHN renal = tested on: ACHN renal
# MDA-MB-435 = tested on: MDA-MB-435
# MDA-N = tested on: MDA-N
# T-47D breast = tested on: T-47D breast
# CAKI-1 renal = tested on: CAKI-1 renal
# SF-268 CNS = tested on: SF-268 CNS
# UO-31 renal = tested on: UO-31 renal
# HCT-15 colon = tested on: HCT-15 colon
# OVCAR-4 ovarian = tested on: OVCAR-4 ovarian
# HS 578T breast = tested on: HS 578T breast
# K-562 leukemia = tested on: K-562 leukemia
# SNB-19 CNS = tested on: SNB-19 CNS
# OVCAR-8 ovarian = tested on: OVCAR-8 ovarian
# SK-OV-3 ovarian = tested on: SK-OV-3 ovarian
# SK-MEL-5 melanoma = tested on: SK-MEL-5 melanoma
# MALME-3M melanoma = tested on: MALME-3M melanoma
# HCT-116 colon = tested on: HCT-116 colon
# HOP-62 NSCLC = tested on: HOP-62 NSCLC
# RXF 393 renal = tested on: RXF 393 renal
# HL-60(TB) leukemia = tested on: HL-60(TB) leukemia
# SW-620 colon = tested on: SW-620 colon
# HCC-2998 colon = tested on: HCC-2998 colon
# KM12 colon = tested on: KM12 colon
# NCI-H522 lung = tested on: NCI-H522 lung
# 786-0 renal = tested on: 786-0 renal
# TK-10 renal = tested on: TK-10 renal
# U251 CNS = tested on: U251 CNS
# NCI-H23 lung = tested on: NCI-H23 lung
# EKVX NSCLC = tested on: EKVX NSCLC
# SR leukemia = tested on: SR leukemia
# MOLT-4 leukemia = tested on: MOLT-4 leukemia
# A549 NSCLC = tested on: A549 NSCLC
# SK-MEL-2 melanoma = tested on: SK-MEL-2 melanoma
# COLO 205 colon = tested on: COLO 205 colon
# IGROV1 ovarian = tested on: IGROV1 ovarian
# SNB-75 CNS = tested on: SNB-75 CNS
# OVCAR-5 ovarian = tested on: OVCAR-5 ovarian
# PC-3 prostate = tested on: PC-3 prostate
# HT29 colon = tested on: HT29 colon
# LOX IMVI melanoma = tested on: LOX IMVI melanoma
# NCI/ADR-RES ovarian = tested on: NCI/ADR-RES ovarian
# SK-MEL-28 melanoma = tested on: SK-MEL-28 melanoma
# MDA-MB-231 breast = tested on: MDA-MB-231 breast
# OVCAR-3 ovarian = tested on: OVCAR-3 ovarian
# BT-549 breast = tested on: BT-549 breast
# MCF7 breast = tested on: MCF7 breast
# NCI-H226 lung = tested on: NCI-H226 lung
# SF-295 CNS = tested on: SF-295 CNS
# UACC-257 melanoma = tested on: UACC-257 melanoma
# M14 melanoma = tested on: M14 melanoma
# SF-539 CNS = tested on: SF-539 CNS
# CCRF-CEM leukemia = tested on: CCRF-CEM leukemia
# HOP-92 NSCLC = tested on: HOP-92 NSCLC
# A498 renal = tested on: A498 renal
smiles,measurement,setting,value
CC1=C(C(=O)OC(C)C)C(c2ccccc2[N+](=O)[O-])C(C(=O)OC(CO[N+](=O)[O-])CO[N+](=O)[O-])=C(C)N1 (stereo not given),TGI,UACC-62 melanoma,8.14 µM
same,TGI,DU-145 prostate,> 100 µM
same,TGI,SN12C renal,52.6 µM
same,TGI,NCI-H460 lung,16 µM
same,TGI,RPMI-8226 leukemia,> 100 µM
same,TGI,ACHN renal,23.7 µM
same,TGI,MDA-MB-435,13.2 µM
same,TGI,MDA-N,8.43 µM
same,TGI,T-47D breast,> 100 µM
same,TGI,CAKI-1 renal,19.3 µM
same,TGI,SF-268 CNS,16.8 µM
same,TGI,UO-31 renal,16.2 µM
same,TGI,HCT-15 colon,16.2 µM
same,TGI,OVCAR-4 ovarian,22.4 µM
same,TGI,HS 578T breast,25.8 µM
same,TGI,K-562 leukemia,71.6 µM
same,TGI,SNB-19 CNS,23.8 µM
same,TGI,OVCAR-8 ovarian,22 µM
same,TGI,SK-OV-3 ovarian,12.6 µM
same,TGI,SK-MEL-5 melanoma,4.78 µM
same,TGI,MALME-3M melanoma,23.6 µM
same,TGI,HCT-116 colon,11.4 µM
same,TGI,HOP-62 NSCLC,11.2 µM
same,TGI,RXF 393 renal,15.5 µM
same,TGI,HL-60(TB) leukemia,> 100 µM
same,TGI,SW-620 colon,18.9 µM
same,TGI,HCC-2998 colon,43 µM
same,TGI,KM12 colon,22.8 µM
same,TGI,NCI-H522 lung,8.45 µM
same,TGI,786-0 renal,14.4 µM
same,TGI,TK-10 renal,> 100 µM
same,TGI,U251 CNS,13.4 µM
same,TGI,NCI-H23 lung,39.2 µM
same,TGI,EKVX NSCLC,18.8 µM
same,TGI,SR leukemia,> 100 µM
same,TGI,MOLT-4 leukemia,5.9 µM
same,TGI,A549 NSCLC,12.9 µM
same,TGI,SK-MEL-2 melanoma,9.64 µM
same,TGI,COLO 205 colon,38.8 µM
same,TGI,IGROV1 ovarian,27.9 µM
same,TGI,SNB-75 CNS,8.19 µM
same,TGI,OVCAR-5 ovarian,> 100 µM
same,TGI,PC-3 prostate,12.2 µM
same,TGI,HT29 colon,7.98 µM
same,TGI,LOX IMVI melanoma,11.3 µM
same,TGI,NCI/ADR-RES ovarian,12.2 µM
same,TGI,SK-MEL-28 melanoma,17.9 µM
same,TGI,MDA-MB-231 breast,35.4 µM
same,TGI,OVCAR-3 ovarian,76.7 µM
same,TGI,BT-549 breast,26 µM
same,TGI,MCF7 breast,27.9 µM
same,TGI,NCI-H226 lung,28.5 µM
same,TGI,SF-295 CNS,6.95 µM
same,TGI,UACC-257 melanoma,15.7 µM
same,TGI,M14 melanoma,14.3 µM
CC(=O)Oc1cccc2c1C(=O)c1c(OC(C)=O)cc(C)cc1C2=O,TGI,UACC-62 melanoma,> 100 µM
same,TGI,DU-145 prostate,> 100 µM
same,TGI,SN12C renal,> 100 µM
same,TGI,NCI-H460 lung,> 100 µM
same,TGI,RPMI-8226 leukemia,43.8 µM
same,TGI,ACHN renal,> 100 µM
same,TGI,MDA-MB-435,> 100 µM
same,TGI,MDA-N,> 100 µM
same,TGI,T-47D breast,> 100 µM
same,TGI,CAKI-1 renal,> 100 µM
same,TGI,SF-268 CNS,> 100 µM
same,TGI,HCT-15 colon,> 100 µM
same,TGI,OVCAR-4 ovarian,> 100 µM
same,TGI,HS 578T breast,> 100 µM
same,TGI,K-562 leukemia,> 100 µM
same,TGI,SF-539 CNS,> 100 µM
same,TGI,SNB-19 CNS,> 100 µM
same,TGI,OVCAR-8 ovarian,> 100 µM
same,TGI,SK-OV-3 ovarian,> 100 µM
same,TGI,CCRF-CEM leukemia,> 100 µM
same,TGI,SK-MEL-5 melanoma,> 100 µM
same,TGI,MALME-3M melanoma,> 100 µM
same,TGI,HCT-116 colon,> 100 µM
same,TGI,HOP-62 NSCLC,> 100 µM
same,TGI,RXF 393 renal,> 100 µM
same,TGI,HL-60(TB) leukemia,> 100 µM
same,TGI,SW-620 colon,> 100 µM
same,TGI,HCC-2998 colon,> 100 µM
same,TGI,KM12 colon,> 100 µM
same,TGI,NCI-H522 lung,> 100 µM
same,TGI,786-0 renal,72.5 µM
same,TGI,HOP-92 NSCLC,> 100 µM
same,TGI,A498 renal,> 100 µM
same,TGI,TK-10 renal,> 100 µM
same,TGI,U251 CNS,> 100 µM
same,TGI,NCI-H23 lung,> 100 µM
same,TGI,EKVX NSCLC,> 100 µM
same,TGI,SR leukemia,> 100 µM
same,TGI,MOLT-4 leukemia,> 100 µM
same,TGI,A549 NSCLC,> 100 µM
same,TGI,SK-MEL-2 melanoma,> 100 µM
same,TGI,COLO 205 colon,> 100 µM
same,TGI,IGROV1 ovarian,> 100 µM
same,TGI,SNB-75 CNS,> 100 µM
same,TGI,OVCAR-5 ovarian,> 100 µM
same,TGI,PC-3 prostate,> 100 µM
same,TGI,HT29 colon,> 100 µM
same,TGI,LOX IMVI melanoma,> 100 µM
same,TGI,NCI/ADR-RES ovarian,> 100 µM
same,TGI,SK-MEL-28 melanoma,> 100 µM
same,TGI,MDA-MB-231 breast,> 100 µM
same,TGI,OVCAR-3 ovarian,> 100 µM
same,TGI,BT-549 breast,> 100 µM
same,TGI,MCF7 breast,> 100 µM
same,TGI,NCI-H226 lung,> 100 µM
same,TGI,SF-295 CNS,> 100 µM
same,TGI,UACC-257 melanoma,> 100 µM
same,TGI,M14 melanoma,> 100 µM
CN(/N=C\c1ccc2ccccc2c1)C1=NCCCCN1,TGI,UACC-62 melanoma,64.2 µM
same,TGI,DU-145 prostate,> 100 µM
same,TGI,SN12C renal,45.7 µM
same,TGI,NCI-H460 lung,39.7 µM
same,TGI,RPMI-8226 leukemia,56.9 µM
same,TGI,ACHN renal,> 100 µM
same,TGI,MDA-MB-435,38.1 µM
same,TGI,MDA-N,31.2 µM
same,TGI,T-47D breast,> 100 µM
same,TGI,CAKI-1 renal,29.9 µM
same,TGI,SF-268 CNS,> 100 µM
same,TGI,UO-31 renal,55.8 µM
same,TGI,HCT-15 colon,> 100 µM
same,TGI,OVCAR-4 ovarian,> 100 µM
same,TGI,HS 578T breast,62.3 µM
same,TGI,K-562 leukemia,42.5 µM
same,TGI,SF-539 CNS,48.6 µM
same,TGI,OVCAR-8 ovarian,> 100 µM
same,TGI,SK-OV-3 ovarian,> 100 µM
same,TGI,CCRF-CEM leukemia,69.1 µM
same,TGI,SK-MEL-5 melanoma,27.3 µM
same,TGI,MALME-3M melanoma,30.1 µM
same,TGI,HCT-116 colon,> 100 µM
same,TGI,HOP-62 NSCLC,90.7 µM
same,TGI,RXF 393 renal,42.6 µM
same,TGI,HL-60(TB) leukemia,39.9 µM
same,TGI,SW-620 colon,37.8 µM
same,TGI,HCC-2998 colon,28.5 µM
same,TGI,KM12 colon,52.1 µM
same,TGI,NCI-H522 lung,34 µM
same,TGI,786-0 renal,32.8 µM
same,TGI,HOP-92 NSCLC,7.4 µM
same,TGI,A498 renal,56.6 µM
same,TGI,TK-10 renal,56.5 µM
same,TGI,U251 CNS,44.6 µM
same,TGI,NCI-H23 lung,> 100 µM
same,TGI,EKVX NSCLC,> 100 µM
same,TGI,SR leukemia,68.7 µM
same,TGI,MOLT-4 leukemia,48.2 µM
same,TGI,A549 NSCLC,58.3 µM
same,TGI,SK-MEL-2 melanoma,45.4 µM
same,TGI,COLO 205 colon,35.3 µM
same,TGI,IGROV1 ovarian,> 100 µM
same,TGI,SNB-75 CNS,59.3 µM
same,TGI,OVCAR-5 ovarian,> 100 µM
same,TGI,PC-3 prostate,36 µM
same,TGI,HT29 colon,38.2 µM
same,TGI,LOX IMVI melanoma,28.7 µM
same,TGI,NCI/ADR-RES ovarian,> 100 µM
same,TGI,SK-MEL-28 melanoma,31.1 µM
same,TGI,MDA-MB-231 breast,64.5 µM
same,TGI,OVCAR-3 ovarian,> 100 µM
same,TGI,BT-549 breast,46.8 µM
same,TGI,MCF7 breast,48.9 µM
same,TGI,NCI-H226 lung,> 100 µM
same,TGI,SF-295 CNS,33.5 µM
same,TGI,UACC-257 melanoma,33.7 µM
